From US20110053954A1, “METHOD OF TREATMENT AND/OR PREVENTION OF BRAIN, SPINAL OR NERVE INJURY” (priority 2001, published 2011)

Tests used:
Type in all cases: in vivo, rat
Male Sprague Dawley rats [1] = assay: Rotarod motor outcome after traumatic brain injury (impact acceleration model); details: i.v. at 30 minutes after injury, NK-1 antagonist 10 mg/kg, MK801 0.3 mg/kg, compared with saline vehicle, 24 h to 10 days post-injury
Procedure: (§1) Male Sprague Dawley rats (400±25 g) were pre-trained on both the Rotarod and Barnes maze so as to assess the effects of the compound on post-traumatic motor and cognitive outcome, respectively. After one week of training, rats were severely injured using the impact acceleration model of traumatic brain injury (2 meters) and administered either of the NK-1 receptor antagonist N-(3,5-bis-trifluoromethylbenzyl)-N-methyl-6-(4-methyl-piperazin-1-yl)-4-o-tolyl-nicotinamide (10 mg/kg i.v., based on active, free base), the NMDA (N-methyl-D-aspartate) antagonist MK801 ((+)-10,11-dihydro-5-methyl-5H-dibenzo[a,d]cyclo-hepten-5,10-diyldiammonium maleate; Dizocilpine maleate; 0.3 mg/kg i.v., based on active, free base) or 0.9% saline vehicle (n=10/group) at 30 minutes after injury.
Over the next 9 days, there was a gradual improvement in motor performance, however the deficit was always significant compared to pre-injury.

Male Sprague Dawley rats [2] = assay: Barnes maze cognitive outcome after traumatic brain injury; details: i.v. at 30 minutes after injury
Procedure: as §1
Prior to injury, rats were trained to locate an escape tunnel (from aversive sound and light) within 20 sec. This time factor depends on the ability of the animal to learn and remember the location of the escape tunnel.

Male Sprague Dawley rats [3] = assay: Mortality after severe traumatic brain injury; details: i.v. at 30 minutes after injury, saline 30%
Procedure: as §1
Mortality in rats in this severe model of injury is normally between 20 and 30%. In the saline treated animals, mortality was indeed 30%. […] This high mortality was consistent with this injury level being severe as confirmed by post mortem gross histological analysis of all brains.

Male Sprague Dawley rats [4] = assay: Evans Blue extravasation as marker of blood brain barrier permeability after traumatic brain injury; details: Evans Blue i.v. at 4.5 h after injury, circulating 30 mins, saline standardized to 100%
Procedure: Edema formation in the immediate post-traumatic period is thought to be vasogenic in origin, where increased permeability of the blood brain barrier permits protein extravasation and water accumulation in the brain interstitium. We used Evans Blue extravasation as a marker of blood brain permeability after traumatic brain injury and treatment with the NK-1 receptor antagonist N-(3,5-bis-trifluoromethyl-benzyl)-N-methyl-6-(4-methyl-piperazin-1-yl)-4-o-tolyl-nicotinamide.
At 4.5 h after induction of brain injury, animals were administered i.v. Evans Blue which was allowed to circulate for 30 mins. At that time point, animals were sacrificed and their brains removed for analysis of Evans Blue penetration. The amount of Evans Blue accumulation in the brains of saline treated animals was standardized to 100%. […] As anticipated, uninjured (sham) animals had no significant Evans Blue accumulation in brain tissue.

Male Sprague Dawley rats [5] = assay: Respiratory pattern and weaning off the ventilator after brain injury; details: brain injured rats
Procedure: as §1
This stability in respiration is thought to be due to both central effects on respiration and by the NK-1 receptor antagonist administered in the method of treatment of the present invention reducing pulmonary edema formation in brain injured animals.

Male Sprague Dawley rats [6] = assay: Exploratory behavior and self-grooming (post-traumatic depression) after brain injury; details: brain injured rats, compared with non-injured animals

Cc1ccccc1-c1cc(N2CCN(C)CC2)ncc1C(=O)N(C)Cc1cc(C(F)(F)F)cc(C(F)(F)F)c1 [N-(3,5-bis-trifluoromethyl-benzyl)-N-methyl-6-(4-methyl-piperazin-1-yl)-4-o-tolyl-nicotinamide]
motor outcome (Rotarod Motor Score) after brain injury (Male Sprague Dawley rats [1]): significantly better motor outcome | latency to escape the aversive stimuli (Barnes Cognitive Score) (Male Sprague Dawley rats [2]; at 24 h / at any time point after injury, pre-injury within 20 sec): did not demonstrate an increased latency | latency to escape the aversive stimuli, course over the ensuing 9 days (Male Sprague Dawley rats [2]; days 2-10 post-injury): improved with each assessment | mortality (Male Sprague Dawley rats [3]): 0% | Evans Blue accumulation in brain relative to saline treated animals (Male Sprague Dawley rats [4]): 18% | weaning off of the ventilator (Male Sprague Dawley rats [5]; compared with any other treatment group): far more quickly | respiratory pattern (Male Sprague Dawley rats [5]; compared with saline and MK801 treated counterparts): more stable respiratory pattern | exploratory behavior and self-grooming (Male Sprague Dawley rats [6]): not significantly different from non-injured animals
